Test results: PubChem BioAssay AID1902 (Broad Institute, 2009)
The source made the active and inactive calls.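 Rule for the calls: active = EC50 no more than a set limit of log units above the highest dose; inactive = the rest.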

These molecules were tested against S. pyogenes SKKanGAS, kanamycin survival, BacTiterGlo, 6 h (assay: S. pyogenes SKKanGAS kanamycin growth inhibitors – SKKanGAS strain, luminescence, dose confirmation, streptokinase promoter inhibitor project, dose response (AID 1902);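 note: lower survival reflects blocked streptokinase promoter driving kanamycin resistance gene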).
For `O=c1cc(-c2ccccc2Cl)oc2ccc([N+](=O)[O-])c(O)c12`, the EC50 was 3.25 µM. `CC(C)(C)c1ccc(C(=O)CC(=O)c2cc(Cl)ccc2O)cc1` showed an EC50 of 0.349 µM. In the case of `CCCCCCCCCCCCC(NC(C)=O)(C(=O)OCC)C(=O)OCC`, the EC50 is reported as 6.05 µM. For `CCc1ccc(S(=O)(=O)/N=C2\C=C(Nc3ccc(O)cc3)C(=O)c3ccccc32)cc1`, the EC50 was 1.51 µM. `COC(=O)c1c(NC(=O)c2ccc([N+](=O)[O-])o2)sc2c1CCN(C(C)C)C2` was tested, and the EC50 was 4 µM. For `N#C/C(=C(/O)Cc1cccc2ccccc12)c1nc2ccccc2s1`, the EC50 was 1.36 µM. `NS(=O)(=O)c1ccc(N2N=C(c3ccc(Br)cc3)CC2c2ccc(F)cc2)cc1` (configuration not stated) was tested, and the EC50 was 2.21 µM. Work on `C/C(CC(=O)Nc1ccc(Cl)c(C(F)(F)F)c1)=N\NC(=O)c1ccccc1O` yielded an EC50 of 3.98 µM. Molecule `Cn1c(N)c(C(=O)COC(=O)CCc2c[nH]c3ccccc23)c(=O)n(C)c1=O` has an EC50 of 9.68 µM. `COc1ccc(-c2sc3ccc(OC)cc3c2C#CCCO)cc1` was tested, and the EC50 was 9.27 µM. `COc1ccc(C(=O)Nc2sc(C)c(-c3ccccc3)c2C#N)cc1OC` showed an EC50 of 13.3 µM. With `O=c1ccc(N=Nc2ccccc2)ccc1O` the EC50 was 3.51 µM. `CCCn1c(=O)c(C(=O)Nc2ncccc2C)c(O)c2ccccc21` showed an EC50 of 5.16 µM. For `COc1ccc(NC(=O)c2nc[nH]c2C(=O)N[C@@H](CC(C)C)C(=O)OC(C)(C)C)cc1`, the EC50 was 3.28 µM. For `COC(=O)c1cc(S(=O)(=O)n2nc(C)c(Br)c2C)c(Cl)cc1Cl`, the EC50 was 1.01 µM. Molecule `Cc1cccc(CS(=O)(=O)c2nnc([C@H](Cc3ccccc3)NC(=O)OC(C)(C)C)o2)c1` has an EC50 of 3.88 µM. Work on `O=C1NC(=Nc2ccc(Cl)cc2)SC1Cc1cc(Cl)ccc1Cl` (configuration not stated) yielded an EC50 of 2.97 µM. `CCOc1ccc(NC(=O)c2c(NC(=O)CNCCN3CCOCC3)sc3c2CCC3)cc1` was tested, and the EC50 was 1.1 µM. Work on `O=C(N/N=C/c1c[nH]c2ccccc12)c1[nH]c2ccc(Br)cc2c1-c1ccccc1` yielded an EC50 of 2.17 µM. `CC(=O)c1c(C)[nH]c(C(=O)Nc2nc(-c3ccc(-c4ccccc4)cc3)cs2)c1C` was tested, and the EC50 was 4.14 µM. Molecule `Nc1nc2ccccc2n1/N=C/c1ccc(-c2ccccc2)o1` has an EC50 of 1.96 µM. For `CN(C)[C@@H]1C(=O)C(C(N)=O)=C(O)[C@@]2(O)C(=O)C3=C(O)c4c(O)cccc4[C@@](C)(O)C3[C@H](O)C12` (some centres not stated), the EC50 was 0.095 µM. Molecule `O=c1c2c(nc3c(-c4ccc(Cl)cc4)c[nH]n13)CCCC2` has an EC50 of 4.55 µM. `Cc1ccccc1NC1=C/C(=N\S(=O)(=O)c2cccs2)c2ccccc2C1=O` was tested, and the EC50 was 1.44 µM. For `COc1ccc(Cl)cc1NC(=O)CN1CCC(n2nnc3cc(C)ccc32)CC1`, the EC50 was 10.8 µM. `O=C(/C=C/c1ccc([N+](=O)[O-])o1)NNC(=O)c1ccc(F)cc1` gave an EC50 of 1.8 µM. `CCCCCC(=O)NC(=S)NC1C2CC3CC(C2)CC1C3` (configuration not stated) gave an EC50 of 3.83 µM. Molecule `Cc1cc(/C=C2\SC(=O)NC2=O)c(C)n1-c1ccc(N2CCOCC2)cc1` has an EC50 of 1.58 µM. Molecule `Cc1cc(Nc2ccccc2)nn1C(=O)c1ccc(Br)cc1` has an EC50 of 14.6 µM. In the case of `Cc1cc(NC(=O)CN2C(=O)c3ccccc3C2=O)no1`, the EC50 is reported as > 15 µM (inactive). Molecule `COc1ccc(-c2csc(Nc3ccc(S(=O)(=O)Nc4cc(C)on4)cc3)n2)cc1C` has an EC50 of 6.44 µM. For `COc1cccc(/C=C/c2ccc3cccc(O)c3n2)c1OC`, the EC50 was 0.887 µM. In the case of `Cc1ccc(NS(=O)(=O)c2ccc(Cl)c(NC(=S)NC(=O)C3CCCCC3)c2)cc1Cl`, the EC50 is reported as 1.13 µM. For `COc1cccc(NC(=O)NCCCCc2ccccc2)c1`, the EC50 was > 15 µM (inactive). In the case of `Nc1nc(N)c2cc(Sc3ccc4ccccc4c3)ccc2n1`, the EC50 is reported as 0.115 µM. With `Nc1nc(-c2ccccc2)c(N=Nc2cccc3ccccc23)s1` the EC50 was 4 µM. Molecule `COc1ccc2oc(=O)c(-c3csc(Nc4ccc(O)cc4)n3)cc2c1` has an EC50 of 2.16 µM. `CCSc1nnc(NC(=O)c2ccc3ccccc3n2)s1` was tested, and the EC50 was 2.53 µM. `O=C(NNc1ccccc1Br)C(O)(c1cccc(C(F)(F)F)c1)c1cccc(C(F)(F)F)c1` was tested, and the EC50 was 2.59 µM. `O=[N+]([O-])c1cc(S(=O)(=O)C(F)(F)F)ccc1Sc1nc2ccccc2[nH]1` gave an EC50 of 4.1 µM. Work on `Cc1ccc(/C=C2/Sc3ccc(C(=O)N4CCN(c5ccccn5)CC4)cc3NC2=O)cc1` yielded an EC50 of 1.91 µM. In the case of `Cc1c(C(=O)NNC(=S)NCc2ccc(Cl)cc2)oc2ccccc12`, the EC50 is reported as 2.17 µM. `Fc1ccc(-n2cc(-c3ccccc3)c3c(=S)nc[nH]c32)cc1` gave an EC50 of 8.7 µM. `CCCCCCc1cc2cc(C(=O)OCC)c(=O)oc2cc1O` was tested, and the EC50 was 5.46 µM. `CCOC(=O)c1sc2nccc(N(C)C)c2c1N=CNOCc1c(F)cccc1Cl` was tested, and the EC50 was 5.16 µM. In the case of `CCOc1ccc(/C=C2/Sc3ccc(C(=O)N4CCN(C(=O)c5ccco5)CC4)cc3N(C)C2=O)cc1OC`, the EC50 is reported as 4.19 µM. With `CCOC(=O)c1ccc(NC(=O)c2nc(S(=O)(=O)Cc3ccccc3)ncc2Cl)cc1` the EC50 was 9 µM. With `O=C(NNC(=O)c1cc(-c2ccc(Cl)c(Cl)c2)nc2ccccc12)Nc1ccccc1` the EC50 was 4.83 µM. Work on `Cc1cccc(NC(=O)c2nc[nH]c2C(=O)N[C@@H](CCCCNC(=O)OC(C)(C)C)C(=O)OC(C)(C)C)c1` yielded an EC50 of 2.83 µM. `O=c1cc(-c2ccc([N+](=O)[O-])cc2)nc2cc(-c3ccc(F)cc3)[nH]n12` was tested, and the EC50 was 3.48 µM. For `CC(=O)NC(c1ccccc1)c1cc(Cl)c2cccnc2c1O` (configuration not stated), the EC50 was 1.17 µM. `N#CCC(=O)Nc1ccc(C(=O)OC(C(=O)Nc2cc(C(F)(F)F)ccc2Cl)c2ccccc2)cc1` (configuration not stated) was tested, and the EC50 was 3.64 µM. `C/C(=N\NC(=O)c1ccccc1O)C1C(=O)c2ccccc2C1=O` was tested, and the EC50 was 4.69 µM. Work on `COc1cccc(-c2cc(C(F)(F)F)nc(N3CCC(C)CC3)n2)c1` yielded an EC50 of 7.06 µM. Work on `CCCCn1c(=O)c(C(=O)Nc2ccccn2)c(O)c2ccccc21` yielded an EC50 of 5.09 µM. `CCCCCn1c(N)c(-c2nc3ccccc3s2)c2c([N+](=O)[O-])nn(CC)c(=O)c21` was tested, and the EC50 was 8.16 µM. For `O=C(CN(c1ccc(Cl)c(C(F)(F)F)c1)S(=O)(=O)c1ccccc1)N/N=C/c1cccc2c1OCCO2`, the EC50 was 13.4 µM. For `Cc1ccc(/C(O)=C/C(=O)C(=O)NC23CC4CC(CC(C4)C2)C3)cc1`, the EC50 was 2.06 µM. `CC(=O)Nc1nc2ccccc2n1CCOc1ccccc1` gave an EC50 of 11.3 µM. For `CCOc1ccc2nc(NC(=O)CN3CCC(n4nnc5cc(C(F)(F)F)ccc54)CC3)sc2c1`, the EC50 was 2.43 µM. With `CCOc1ccc2nc(N3C(=O)/C(=C/c4ccc(Cl)cc4)NC3=S)sc2c1` the EC50 was 1.3 µM. Work on `CC1Cc2ccccc2N1C(=S)NC(=O)c1ccc(Cl)cc1Cl` (configuration not stated) yielded an EC50 of 4.26 µM. `C=C1CCC2C(C)(C)[C@@H](O)CC[C@@]2(C)[C@@H]1COc1ccc2ccc(=O)oc2c1` (some centres not stated) showed an EC50 of 11.6 µM. Work on `CCN(c1ccc(OC)cc1)S(=O)(=O)c1nnc(NC(=O)c2ccccc2Cl)s1` yielded an EC50 of 3.31 µM. For `Cc1ccc(C(=O)N/N=C/c2cc(Br)ccc2O)cn1`, the EC50 was 2.48 µM. Work on `Cc1ccc(N/N=C2\CS(=O)(=O)N(C)c3ccsc32)cc1` yielded an EC50 of 1.49 µM. Work on `Clc1ccc(-c2n[nH]c3c2CCC3)c(Cl)c1` yielded an EC50 of 0.975 µM. For `Fc1ccccc1CNc1ccc(Cl)c(Cl)c1`, the EC50 was 15.6 µM. Molecule `CCc1ccc2c(c1)C1(NN=C(c3ccccc3)S1)C(=O)N2` (configuration not stated) has an EC50 of 0.245 µM. For `Cc1nn(-c2ccccc2)c(Cl)c1/C=N/NC(=O)c1ccc(NS(=O)(=O)c2cccs2)cc1`, the EC50 was 2.34 µM. For `CCOC(=O)C1=NN(C(=O)c2ccc(C)cc2)C(O)(c2ccc(Cl)cc2)C1` (configuration not stated), the EC50 was 3.06 µM. For `CNC[C@@H](CC1CCCCC1)NC[C@H](CC(C)C)NCCc1cccc(C(F)(F)F)c1`, the EC50 was 5.4 µM. `CCCCCCn1c(=O)c(C(=O)Nc2ncccc2C)c(O)c2ccccc21` gave an EC50 of 0.507 µM. `O=C(OCc1ccc(COC(=O)c2ccc(O)cc2)cc1)c1ccc(O)cc1` was tested, and the EC50 was 2.21 µM. With `COc1ccc(/C=C/C(=O)NC(=S)NNC(=O)c2cnccn2)cc1` the EC50 was 5.92 µM. Work on `O=C(N/N=C/c1ccccc1O)NC12CC3CC(CC(C3)C1)C2` yielded an EC50 of 8.68 µM. `Fc1cccc2sc(Nc3nnc(-c4ccccc4)o3)nc12` was tested, and the EC50 was 0.824 µM.
